Holding throughout (assay): Kinase panel enzymatic inhibition assay (Nanosyn)
Common to all, as to type: biochemical

Test [1] deals with T1, CRAF (Homo sapiens, UniProt P04049).
T1 construct: purchased Nanosyn (contract screening)
The following applies: compound 5 μM; ATP at Km; 30-minute pre-incubation. The essentials:
(§1)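 Inhibition is expressed as percent at 5 μM or as IC50, with ATP set at the Km of each kinase and a 30-minute compound pre-incubation. Detection used an accepted enzymatic format such as Caliper mobility shift.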

The test system of test [2] is EPH. The following applies: compound 5 μM; ATP at Km; 30-minute pre-incubation. The essentials:
as §1

In test [3] the target is T2, MAP4K2 (Homo sapiens, UniProt Q12851).
T2 construct: purchased Nanosyn (contract screening)
T2 sequence (Q12851 1-820): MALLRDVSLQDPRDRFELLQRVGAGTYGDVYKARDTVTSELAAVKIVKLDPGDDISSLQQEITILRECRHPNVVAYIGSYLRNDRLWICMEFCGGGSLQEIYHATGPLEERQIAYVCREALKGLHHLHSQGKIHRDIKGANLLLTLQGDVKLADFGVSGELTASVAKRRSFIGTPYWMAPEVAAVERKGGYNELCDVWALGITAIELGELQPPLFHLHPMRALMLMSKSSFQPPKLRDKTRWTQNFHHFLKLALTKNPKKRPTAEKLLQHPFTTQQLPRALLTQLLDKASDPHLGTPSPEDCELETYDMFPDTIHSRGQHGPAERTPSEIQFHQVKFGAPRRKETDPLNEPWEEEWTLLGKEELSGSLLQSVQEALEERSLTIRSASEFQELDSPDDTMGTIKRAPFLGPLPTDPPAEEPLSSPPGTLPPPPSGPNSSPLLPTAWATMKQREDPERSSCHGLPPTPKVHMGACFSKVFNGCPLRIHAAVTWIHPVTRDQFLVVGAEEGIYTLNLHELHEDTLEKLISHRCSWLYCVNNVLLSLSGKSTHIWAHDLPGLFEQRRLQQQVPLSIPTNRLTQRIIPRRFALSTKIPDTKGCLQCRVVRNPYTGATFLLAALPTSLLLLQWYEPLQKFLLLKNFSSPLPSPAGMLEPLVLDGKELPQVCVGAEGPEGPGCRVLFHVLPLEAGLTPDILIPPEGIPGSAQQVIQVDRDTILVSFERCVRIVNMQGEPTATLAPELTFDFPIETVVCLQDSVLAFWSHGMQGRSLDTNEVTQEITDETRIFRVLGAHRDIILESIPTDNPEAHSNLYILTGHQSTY
The settings on record: compound 5 μM; ATP at Km; 30-minute pre-incubation. In outline: as §1

In test [4] the target is T3, LYNb (Homo sapiens, UniProt P07948).
T3 construct: purchased Nanosyn (contract screening)
T3 sequence (P07948 1-491 isoform P07948-2): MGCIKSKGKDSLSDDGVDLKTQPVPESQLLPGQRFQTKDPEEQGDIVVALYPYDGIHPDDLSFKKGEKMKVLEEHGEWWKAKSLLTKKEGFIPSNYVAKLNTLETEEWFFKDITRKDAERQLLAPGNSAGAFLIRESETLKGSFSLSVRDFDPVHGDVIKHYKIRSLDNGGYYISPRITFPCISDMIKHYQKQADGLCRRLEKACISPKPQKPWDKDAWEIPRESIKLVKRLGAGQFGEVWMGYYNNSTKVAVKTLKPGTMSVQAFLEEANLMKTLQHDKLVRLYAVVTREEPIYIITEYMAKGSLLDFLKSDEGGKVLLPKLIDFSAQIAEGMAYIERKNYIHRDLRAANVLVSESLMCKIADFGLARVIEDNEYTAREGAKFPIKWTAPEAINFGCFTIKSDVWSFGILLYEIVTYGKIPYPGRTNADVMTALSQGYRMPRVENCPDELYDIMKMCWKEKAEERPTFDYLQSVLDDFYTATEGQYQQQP
The following applies: compound 5 μM; ATP at Km; 30-minute pre-incubation. In outline: as §1

Test [5] concerns the target T4, ERBB4 (Homo sapiens, UniProt Q15303).
T4 construct: purchased Nanosyn (contract screening)
The following applies: compound 5 μM; ATP at Km; 30-minute pre-incubation. The essentials: as §1

In test [6] the target is T5, PDGFRb (Homo sapiens, UniProt P09619).
T5 construct: Nanosyn (contract laboratory that ran the panel)
T5 sequence (P09619 33-1106): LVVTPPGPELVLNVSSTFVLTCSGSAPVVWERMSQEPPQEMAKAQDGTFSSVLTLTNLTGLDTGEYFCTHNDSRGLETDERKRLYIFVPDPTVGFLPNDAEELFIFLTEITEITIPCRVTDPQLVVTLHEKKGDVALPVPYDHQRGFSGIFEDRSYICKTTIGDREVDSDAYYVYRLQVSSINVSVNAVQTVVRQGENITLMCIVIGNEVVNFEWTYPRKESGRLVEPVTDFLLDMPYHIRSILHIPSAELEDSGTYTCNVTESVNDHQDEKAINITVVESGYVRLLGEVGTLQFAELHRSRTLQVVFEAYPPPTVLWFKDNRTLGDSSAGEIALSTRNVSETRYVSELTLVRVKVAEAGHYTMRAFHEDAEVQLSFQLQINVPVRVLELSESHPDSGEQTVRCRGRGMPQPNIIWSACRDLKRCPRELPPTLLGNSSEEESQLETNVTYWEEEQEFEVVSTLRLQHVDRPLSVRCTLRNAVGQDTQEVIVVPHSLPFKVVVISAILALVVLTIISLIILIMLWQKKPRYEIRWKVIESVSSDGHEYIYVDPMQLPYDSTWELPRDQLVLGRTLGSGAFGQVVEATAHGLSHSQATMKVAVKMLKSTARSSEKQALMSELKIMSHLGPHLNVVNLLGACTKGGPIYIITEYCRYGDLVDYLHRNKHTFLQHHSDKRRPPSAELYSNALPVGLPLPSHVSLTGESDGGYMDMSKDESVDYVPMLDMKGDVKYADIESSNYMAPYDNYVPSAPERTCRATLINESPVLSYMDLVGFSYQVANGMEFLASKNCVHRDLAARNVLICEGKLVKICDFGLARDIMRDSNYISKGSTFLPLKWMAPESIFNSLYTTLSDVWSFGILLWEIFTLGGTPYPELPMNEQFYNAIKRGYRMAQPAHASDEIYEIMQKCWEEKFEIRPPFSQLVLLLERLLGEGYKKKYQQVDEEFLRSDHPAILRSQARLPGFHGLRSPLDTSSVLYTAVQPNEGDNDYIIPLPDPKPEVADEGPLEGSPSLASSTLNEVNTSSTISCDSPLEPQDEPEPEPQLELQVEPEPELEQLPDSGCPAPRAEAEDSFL
The settings on record: compound 5 μM; ATP at Km; 30-minute pre-incubation. In outline: as §1

For test [7], the target named is T6, TAOK2 (Homo sapiens, UniProt Q9UL54).
T6 construct: Nanosyn (contract laboratory that ran the panel)
T6 sequence (Q9UL54 1-1235): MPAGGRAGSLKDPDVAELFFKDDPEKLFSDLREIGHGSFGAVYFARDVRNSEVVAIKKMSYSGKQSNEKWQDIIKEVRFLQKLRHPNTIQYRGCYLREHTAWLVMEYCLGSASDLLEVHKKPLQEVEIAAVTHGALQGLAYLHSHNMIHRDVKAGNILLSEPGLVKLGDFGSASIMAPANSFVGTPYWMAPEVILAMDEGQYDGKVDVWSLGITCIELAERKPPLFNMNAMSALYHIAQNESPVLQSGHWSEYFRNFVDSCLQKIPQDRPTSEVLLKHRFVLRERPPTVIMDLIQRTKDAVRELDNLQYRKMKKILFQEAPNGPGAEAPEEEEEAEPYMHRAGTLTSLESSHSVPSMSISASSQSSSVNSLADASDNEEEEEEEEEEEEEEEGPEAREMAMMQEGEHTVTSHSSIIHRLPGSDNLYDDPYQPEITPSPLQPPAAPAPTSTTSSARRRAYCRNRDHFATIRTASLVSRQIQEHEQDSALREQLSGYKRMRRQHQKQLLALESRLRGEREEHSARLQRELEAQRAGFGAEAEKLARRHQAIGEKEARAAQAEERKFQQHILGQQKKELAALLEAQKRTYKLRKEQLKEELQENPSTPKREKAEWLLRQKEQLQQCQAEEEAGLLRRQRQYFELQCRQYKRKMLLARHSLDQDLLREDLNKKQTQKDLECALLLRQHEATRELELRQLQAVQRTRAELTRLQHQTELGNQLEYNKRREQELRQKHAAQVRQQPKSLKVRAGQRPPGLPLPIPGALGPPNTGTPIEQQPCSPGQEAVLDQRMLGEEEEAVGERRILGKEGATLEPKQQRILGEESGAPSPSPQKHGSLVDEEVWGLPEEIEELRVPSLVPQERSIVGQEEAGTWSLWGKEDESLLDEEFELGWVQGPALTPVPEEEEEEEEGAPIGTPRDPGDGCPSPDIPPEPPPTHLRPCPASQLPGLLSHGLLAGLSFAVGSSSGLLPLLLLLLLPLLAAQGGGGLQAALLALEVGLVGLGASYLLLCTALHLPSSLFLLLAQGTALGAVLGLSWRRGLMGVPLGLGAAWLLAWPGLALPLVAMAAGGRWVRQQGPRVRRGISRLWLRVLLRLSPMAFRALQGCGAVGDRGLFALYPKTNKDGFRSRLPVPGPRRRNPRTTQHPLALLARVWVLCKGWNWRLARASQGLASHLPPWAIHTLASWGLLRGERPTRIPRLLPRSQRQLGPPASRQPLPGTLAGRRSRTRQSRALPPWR
The following applies: compound 5 μM; ATP at Km; 30-minute pre-incubation. In outline:
as §1

Test [8] has as its target T7, MNK2 (Homo sapiens, UniProt Q9HBH9).
T7 construct: Nanosyn (contract laboratory that ran the panel)
The settings on record: compound 5 μM; ATP at Km; 30-minute pre-incubation. In outline:
as §1

The target of test [9] is T8, DDR1 (Homo sapiens, UniProt Q08345).
T8 construct: purchased Nanosyn (contract screening)
T8 sequence (Q08345 19-913): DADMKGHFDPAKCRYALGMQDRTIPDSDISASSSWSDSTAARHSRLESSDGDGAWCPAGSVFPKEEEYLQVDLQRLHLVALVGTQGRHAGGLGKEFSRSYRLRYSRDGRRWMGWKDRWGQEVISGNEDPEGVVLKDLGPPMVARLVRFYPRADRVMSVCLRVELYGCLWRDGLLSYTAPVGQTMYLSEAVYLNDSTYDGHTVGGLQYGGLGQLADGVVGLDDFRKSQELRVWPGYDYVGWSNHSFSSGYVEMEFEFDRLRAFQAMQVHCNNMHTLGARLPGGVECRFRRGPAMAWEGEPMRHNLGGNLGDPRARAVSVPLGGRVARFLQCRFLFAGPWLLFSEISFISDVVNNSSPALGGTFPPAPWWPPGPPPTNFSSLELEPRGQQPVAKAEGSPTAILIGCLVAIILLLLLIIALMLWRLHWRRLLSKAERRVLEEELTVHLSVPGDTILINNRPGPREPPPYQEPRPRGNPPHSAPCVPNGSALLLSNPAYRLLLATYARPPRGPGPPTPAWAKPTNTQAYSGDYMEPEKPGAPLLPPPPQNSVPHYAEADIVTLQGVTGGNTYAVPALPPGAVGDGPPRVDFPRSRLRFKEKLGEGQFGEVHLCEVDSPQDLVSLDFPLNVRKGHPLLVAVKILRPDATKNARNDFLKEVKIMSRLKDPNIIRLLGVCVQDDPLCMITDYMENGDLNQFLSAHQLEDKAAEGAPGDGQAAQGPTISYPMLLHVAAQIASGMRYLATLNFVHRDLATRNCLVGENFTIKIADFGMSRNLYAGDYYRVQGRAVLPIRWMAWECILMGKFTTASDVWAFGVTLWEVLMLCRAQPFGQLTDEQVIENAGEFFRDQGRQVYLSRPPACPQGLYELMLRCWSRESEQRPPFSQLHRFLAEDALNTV
The following applies: ATP at Km, 30-minute pre-incubation; for inhibition at 5 µM: compound 5 μM; for IC50: read-out: kinase inhibition in terms of IC50, DDR1. In outline: as §1

Structures are written as SMILES.

The text below walks through data of patent US20240400577A1, “MODULATORS OF PROTEIN KINASES” (VIBLIOME THERAPEUTICS, LLC, priority 2021, published 2024).

T4 sequence (Q15303 26-1308): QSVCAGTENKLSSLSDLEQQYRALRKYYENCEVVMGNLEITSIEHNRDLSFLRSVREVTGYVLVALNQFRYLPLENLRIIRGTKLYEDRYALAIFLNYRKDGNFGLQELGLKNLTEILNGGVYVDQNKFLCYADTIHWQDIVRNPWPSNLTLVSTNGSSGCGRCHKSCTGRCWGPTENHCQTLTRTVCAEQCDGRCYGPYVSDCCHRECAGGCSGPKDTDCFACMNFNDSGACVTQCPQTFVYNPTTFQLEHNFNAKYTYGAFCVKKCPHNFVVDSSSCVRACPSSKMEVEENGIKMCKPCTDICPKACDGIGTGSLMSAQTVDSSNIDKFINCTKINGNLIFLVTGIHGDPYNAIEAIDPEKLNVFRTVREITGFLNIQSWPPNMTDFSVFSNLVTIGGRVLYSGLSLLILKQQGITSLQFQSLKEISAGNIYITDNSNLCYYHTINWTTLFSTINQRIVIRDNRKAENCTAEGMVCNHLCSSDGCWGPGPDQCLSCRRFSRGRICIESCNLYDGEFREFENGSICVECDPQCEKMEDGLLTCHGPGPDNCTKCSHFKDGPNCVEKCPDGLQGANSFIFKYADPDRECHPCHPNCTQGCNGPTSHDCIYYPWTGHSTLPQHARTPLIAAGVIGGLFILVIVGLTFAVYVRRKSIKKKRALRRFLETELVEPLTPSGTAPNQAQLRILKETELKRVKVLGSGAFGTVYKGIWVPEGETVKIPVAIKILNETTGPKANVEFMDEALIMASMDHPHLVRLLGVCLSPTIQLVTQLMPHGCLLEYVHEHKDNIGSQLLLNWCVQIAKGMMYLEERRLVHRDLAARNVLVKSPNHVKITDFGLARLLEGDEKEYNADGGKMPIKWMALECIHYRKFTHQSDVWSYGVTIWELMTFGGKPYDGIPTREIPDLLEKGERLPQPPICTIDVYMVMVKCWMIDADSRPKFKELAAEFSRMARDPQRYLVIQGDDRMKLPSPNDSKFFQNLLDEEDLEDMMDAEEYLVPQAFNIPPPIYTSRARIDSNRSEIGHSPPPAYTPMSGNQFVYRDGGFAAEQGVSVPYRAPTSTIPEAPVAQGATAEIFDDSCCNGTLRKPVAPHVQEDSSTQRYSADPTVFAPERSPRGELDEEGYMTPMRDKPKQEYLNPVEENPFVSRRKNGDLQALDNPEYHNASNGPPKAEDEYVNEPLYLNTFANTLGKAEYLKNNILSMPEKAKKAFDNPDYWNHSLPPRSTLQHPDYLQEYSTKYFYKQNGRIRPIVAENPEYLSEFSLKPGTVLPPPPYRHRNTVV
T1 sequence (P04049 whole entry): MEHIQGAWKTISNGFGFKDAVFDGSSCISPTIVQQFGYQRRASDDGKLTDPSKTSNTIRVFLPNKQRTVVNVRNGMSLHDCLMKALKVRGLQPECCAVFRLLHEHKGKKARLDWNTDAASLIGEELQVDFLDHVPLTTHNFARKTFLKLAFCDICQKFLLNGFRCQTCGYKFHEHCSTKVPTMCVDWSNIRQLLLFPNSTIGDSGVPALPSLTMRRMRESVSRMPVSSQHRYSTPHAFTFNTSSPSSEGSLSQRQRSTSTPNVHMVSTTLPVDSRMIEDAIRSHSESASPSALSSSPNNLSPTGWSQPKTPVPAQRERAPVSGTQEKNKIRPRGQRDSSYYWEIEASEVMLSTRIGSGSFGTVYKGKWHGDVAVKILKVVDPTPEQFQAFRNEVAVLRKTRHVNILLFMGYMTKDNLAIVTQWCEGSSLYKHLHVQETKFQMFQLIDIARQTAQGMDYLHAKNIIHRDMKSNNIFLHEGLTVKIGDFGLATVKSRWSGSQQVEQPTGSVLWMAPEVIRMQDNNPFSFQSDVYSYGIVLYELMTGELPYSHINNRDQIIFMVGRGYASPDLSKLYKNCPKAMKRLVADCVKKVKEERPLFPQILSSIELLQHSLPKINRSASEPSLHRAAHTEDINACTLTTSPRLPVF
T7 sequence (Q9HBH9 whole entry): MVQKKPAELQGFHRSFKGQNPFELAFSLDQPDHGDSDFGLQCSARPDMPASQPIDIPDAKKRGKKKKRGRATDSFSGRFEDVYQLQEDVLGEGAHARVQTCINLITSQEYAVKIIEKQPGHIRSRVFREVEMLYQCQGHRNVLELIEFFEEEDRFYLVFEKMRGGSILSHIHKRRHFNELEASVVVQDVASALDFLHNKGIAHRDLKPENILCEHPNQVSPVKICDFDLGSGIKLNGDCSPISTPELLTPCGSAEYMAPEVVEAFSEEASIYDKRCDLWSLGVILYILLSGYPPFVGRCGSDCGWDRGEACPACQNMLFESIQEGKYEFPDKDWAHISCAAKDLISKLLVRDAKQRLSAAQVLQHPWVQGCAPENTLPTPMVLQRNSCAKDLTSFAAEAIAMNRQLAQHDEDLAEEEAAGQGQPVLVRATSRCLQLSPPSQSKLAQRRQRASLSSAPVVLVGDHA

Regarding `Cc1ccc(NC(=O)c2cc(S(C)(=O)=O)n(-c3ccc(F)cc3)n2)cc1Nc1nccc(-c2cccnc2N)n1` [Ex13, N-(3-((4-(2-aminopyridin-3-yl)pyrimidin-2-yl)amino)-4-methylphenyl)-1-(4-fluorophenyl)-5-(methylsulfonyl)-1H-pyrazole-3-carboxamide], the inhibition at 5 µM is less than 79% in test [1]; less than 79% in test [3]; no less than 95% in test [4]; 80 to 89% in test [5]; no less than 95% in test [6]; less than 79% in test [7]. In addition, the inhibition at 5 µM in test [8] is less than 79%; in test [9], no less than 95%. For the same molecule, the “kinase inhibition, EPH” value in test [2] is “D (D=79% and less)”.
For `Cc1ccc(NC(=O)c2cc(S(C)(=O)=O)n(-c3ccc(F)cc3)n2)cc1C#Cc1cnc2cccnn12` [Ex14, 1-(4-fluorophenyl)-N-(3-(imidazo[1,2-b]pyridazin-3-ylethynyl)-4-methylphenyl)-5-(methylsulfonyl)-1H-pyrazole-3-carboxamide], the inhibition at 5 µM in test [1] was no less than 95%; in [3], less than 79%; in test [4], no less than 95%; in [5], less than 79%; in test [6], 90 to 94%; in test [7] it was less than 79%. In addition, the inhibition at 5 µM is less than 79% in test [8] and no less than 95% in test [9]. In test [2], the “kinase inhibition, EPH” value is “D (D=79% and less)”.
As to `Cc1ccc(NC(=O)c2cc([S+](C)[O-])n(-c3ccc(F)cc3)n2)cc1Nc1ccc2ncn(C)c(=O)c2c1` (centres unmarked) [Ex5, 1-(4-fluorophenyl)-N-(4-methyl-3-((3-methyl-4-oxo-3,4-dihydroquinazolin-6-yl)amino)phenyl)-5-(methylsulfinyl)-1H-pyrazole-3-carboxamide], the inhibition at 5 µM in [1] was no less than 95%; in test [3], less than 79%; in [4] it was 90 to 94%; in test [5], less than 79%; in test [6] it was less than 79%; in test [7] it was less than 79%. Further, the inhibition at 5 µM was less than 79% in test [8] and 90 to 94% in test [9]. Besides, the “kinase inhibition, EPH” value in [2] is “D (D=79% and less)”.
In the case of `Cc1ccc(NC(=O)c2cc([S+](C)[O-])n(-c3ccc(F)cc3)n2)cc1-c1cc(N2CCOCC2)c(=O)n(C)c1` (centres unmarked) [Ex11, 1-(4-fluorophenyl)-N-(4-methyl-3-(1-methyl-5-morpholino-6-oxo-1,6-dihydropyridin-3-yl)phenyl)-5-(methylsulfinyl)-1H-pyrazole-3-carboxamide], the inhibition at 5 µM was no less than 95% in [1]; less than 79% in test [3]; less than 79% in test [4]; less than 79% in test [5]; less than 79% in test [6]; less than 79% in [7]. Moreover, the inhibition at 5 µM in [8] and in [9] was less than 79% in each case. For the same molecule, the “kinase inhibition, EPH” value in test [2] was “D (D=79% and less)”.
As for `CCOC(=O)Nc1cn2nc(Nc3cc(NC(=O)c4cc(S(C)(=O)=O)n(-c5ccc(F)cc5)n4)ccc3C)ccc2n1` [Ex15, ethyl (6-((5-(1-(4-fluorophenyl)-5-(methylsulfonyl)-1H-pyrazole-3-carboxamido)-2-methylphenyl)amino)imidazo[1,2-b]pyridazin-2-yl)carbamate], the inhibition at 5 µM in test [1] was no less than 95%; in test [3] it was less than 79%; in test [4] it was no less than 95%; in test [5], less than 79%; in test [6], no less than 95%; in [7], less than 79%. For the same molecule, the values for the inhibition at 5 µM in [8] and in test [9] were less than 79% and no less than 95%, respectively. The “kinase inhibition, EPH” value in [2] is “D (D=79% and less)”.
Take `Cc1ccc(NC(=O)c2cc(S(C)(=O)=O)n(-c3ccc(F)cc3)n2)cc1-c1cc(N2CCOCC2)c(=O)n(C)c1` [Ex12, 1-(4-fluorophenyl)-N-(4-methyl-3-(1-methyl-5-morpholino-6-oxo-1,6-dihydropyridin-3-yl)phenyl)-5-(methylsulfonyl)-1H-pyrazole-3-carboxamide]: the inhibition at 5 µM in [1] was no less than 95%; in [3] it was less than 79%; in test [4], less than 79%; in test [5], less than 79%; in test [6], less than 79%; in test [7] it was 80 to 89%. The figures for the inhibition at 5 µM in test [8] and in test [9] were less than 79% and 80 to 89%, respectively. Moreover, the “kinase inhibition, EPH” value in test [2] was “D (D=79% and less)”.
In the case of `CNC(=O)c1cc(Oc2ccc(NC(=O)c3cc(S(C)(=O)=O)n(-c4ccc(F)cc4)n3)c(F)c2)ccn1` [Ex17, 4-(3-fluoro-4-(1-(4-fluorophenyl)-5-(methylsulfonyl)-1H-pyrazole-3-carboxamido)phenoxy)-N-methylpicolinamide], the inhibition at 5 µM in test [1], in test [3], in [4], in test [5], in [6] and in [7] was less than 79% throughout. Further, the inhibition at 5 µM in test [8] was less than 79%; in [9] it was 80 to 89%. Also, in test [2], the “kinase inhibition, EPH” value is “D (D=79% and less)”.
Turning to `COc1cc2nccc(Oc3ccc(NC(=O)c4cc(S(C)(=O)=O)n(-c5ccc(F)cc5)n4)c(F)c3)c2cc1OC` [Ex71, N-(4-((6,7-dimethoxyquinolin-4-yl)oxy)-2-fluorophenyl)-1-(4-fluorophenyl)-5-(methylsulfonyl)-1H-pyrazole-3-carboxamide], the IC50 in [9] is less than 500 nM.
On the same count and under the same terms, under `COc1cc2nccc(Oc3ccc(NC(=O)c4cc(S(C)(=O)=O)n(-c5ccc(F)cc5)n4)cc3F)c2cc1OC` [Ex73, N-(4-((6,7-dimethoxyquinolin-4-yl)oxy)-3-fluorophenyl)-1-(4-fluorophenyl)-5-(methylsulfonyl)-1H-pyrazole-3-carboxamide] stands less than 500 nM.

For orientation: inhibition means the change of the read-out against control, counted positive when it falls. Low readings indicate a response near the control, high ones a response far below the control. By IC50 is commonly meant the concentration at which inhibition is half-maximal.
